# Laboratory results as given in BindingDB's records for doi:10.7270/Q2K64GGJ (University of Pittsburgh, 2006).
# Target: T1, Dual specificity protein phosphatase 1 (Homo sapiens, UniProt P28562)
# T1 sequence (P28562 whole entry): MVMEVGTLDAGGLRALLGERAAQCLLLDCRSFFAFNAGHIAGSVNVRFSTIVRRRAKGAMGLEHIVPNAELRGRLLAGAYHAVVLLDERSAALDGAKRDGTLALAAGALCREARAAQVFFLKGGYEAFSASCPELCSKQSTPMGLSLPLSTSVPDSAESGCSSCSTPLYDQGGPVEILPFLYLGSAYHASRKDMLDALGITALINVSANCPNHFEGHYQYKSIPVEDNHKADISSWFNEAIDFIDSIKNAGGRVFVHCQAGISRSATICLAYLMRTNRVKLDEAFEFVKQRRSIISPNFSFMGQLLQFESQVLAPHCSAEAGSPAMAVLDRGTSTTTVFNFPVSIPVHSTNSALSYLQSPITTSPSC
# Assay: DUSP1 dephosphorylation activity inhibition – biochemical, in vitro, dose response, specificity testing, selectivity assay, confirmation (AID 442)
row,SMILES,IC50 [µM]
1,Cc1ccc2c(c1C)NC(C(=O)O)C1CC=CC21 (stereo not given),40.3
2,"CCn1nc(-c2ccccc2)nc2c(=O)n(C)c(=O)nc1-2 [1-Ethyl-6-methyl-3-phenyl-1H-pyrimido[5,4-e][1,2,4]triazine-5,7-dione]",0.19
3,"CC(C)Cn1c(N)c(C(=O)COC(=O)c2cc(-c3ccco3)nc3ccccc23)c(=O)n(C)c1=O [2-(2-furanyl)-4-quinolinecarboxylic acid [2-[4-amino-1-methyl-3-(2-methylpropyl)-2,6-dioxo-5-pyrimidinyl]-2-oxoethyl] ester]",16.8
4,"CCCCC[C@H](O)C=C[C@H]1C=CC(=O)[C@@H]1C/C=C\CCCC(=O)O [(Z)-7-[(1R,5S)-2-oxidanylidene-5-[(E,3S)-3-oxidanyloct-1-enyl]cyclopent-3-en-1-yl]hept-5-enoic acid]",23.3
5,COc1ccc(Cn2c(C)nc3c(c2=O)c2nc4ccccc4nc2n3Cc2ccco2)cc1 [MLS000079944],18.1
